Assay results: the supplement of paper PMC10307832

What was measured:
Test in all cases: relative viability (nuclei count vs DMSO), 5 days (fraction); higher = more cells survive
[1] = compound: C=CCc1cccc(/C=N/NC(=O)CN2CCN(Cc3ccccc3)CC2)c1O [PAC-1] + O=C(c1cc(Cc2n[nH]c(=O)c3ccccc23)ccc1F)N1CCN(C(=O)C2CC2)CC1 [Olaparib] (partner 8 µM)
How it was run: (§1)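 Relative viability is defined as nuclei in treated wells over nuclei in vehicle wells. Duplicate plates were run and medians reported. Lung cancer cell lines in 1536-well plates were dosed by pin tool one day after seeding, with one drug or with a fixed anchor-drug dose plus five library-drug doses (not always all listed) in √10 steps, and nuclei were counted after 5 days.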

[2] = compound: C=CCc1cccc(/C=N/NC(=O)CN2CCN(Cc3ccccc3)CC2)c1O [PAC-1] + CC(C)C[C@H](NC(=O)[C@H](Cc1ccccc1)NC(=O)c1cnccn1)B(O)O [Bortezomib] (partner 0.002 µM)
How it was run: as §1

[3] = compound: C=CCc1cccc(/C=N/NC(=O)CN2CCN(Cc3ccccc3)CC2)c1O [PAC-1] + CS(=O)(=O)N1CCN(Cc2cc3nc(-c4cccc5[nH]ncc45)nc(N4CCOCC4)c3s2)CC1 [Pictilisib] (partner 1 µM)
How it was run: as §1

[4] = compound: C=CC(=O)N1CCC[C@@H](n2nc(-c3ccc(Oc4ccccc4)cc3)c3c(N)ncnc32)C1 [Ibrutinib] + Cc1cc(Nc2cc(N3CCN(C)CC3)nc(Sc3ccc(NC(=O)C4CC4)cc3)n2)n[nH]1 [Tozasertib] (partner 0.1 µM)
How it was run: as §1

NCI-H2087 was tested, and the relative viability ([1]; first compound 0.02 µM) was 0.53, the relative viability ([1]; first compound 0.06325 µM) was 0.504 and the relative viability ([1]; first compound 0.2 µM) was 0.579. For the same cell line, the relative viability ([1]; first compound 2 µM) was 0.451, the relative viability ([2]; first compound 0.02 µM) was 0.739 and the relative viability ([2]; first compound 0.06325 µM) was 0.838. It also gave a relative viability ([2]; first compound 0.2 µM) of 0.702, a relative viability ([2]; first compound 2 µM) of 0.95 and a relative viability ([3]; first compound 0.02 µM) of 0.852. The relative viability ([3]; first compound 0.06325 µM) was 0.901, the relative viability ([3]; first compound 0.2 µM) was 0.782 and the relative viability ([3]; first compound 2 µM) was 0.683. For the same cell line, the relative viability ([4]; first compound 0.005 µM) was 0.303, the relative viability ([4]; first compound 0.01581 µM) was 0.206 and the relative viability ([4]; first compound 0.05 µM) was 0.262. For the same cell line, the relative viability ([4]; first compound 0.5 µM) was 0.233.
In the case of NCI-H661, the relative viability ([1]; first compound 0.02 µM) is reported as 0.664, the relative viability ([1]; first compound 0.06325 µM) is reported as 0.721 and the relative viability ([1]; first compound 0.2 µM) is reported as 0.684. The relative viability ([1]; first compound 2 µM) was 0.505, the relative viability ([2]; first compound 0.02 µM) was 0.782 and the relative viability ([2]; first compound 0.06325 µM) was 0.816. For the same cell line, the relative viability ([2]; first compound 0.2 µM) was 0.782, the relative viability ([2]; first compound 2 µM) was 0.91 and the relative viability ([3]; first compound 0.02 µM) was 0.392. It also gave a relative viability ([3]; first compound 0.06325 µM) of 0.351, a relative viability ([3]; first compound 0.2 µM) of 0.33 and a relative viability ([3]; first compound 2 µM) of 0.371. The relative viability ([4]; first compound 0.005 µM) was 0.353, the relative viability ([4]; first compound 0.01581 µM) was 0.372 and the relative viability ([4]; first compound 0.05 µM) was 0.384. It also gave a relative viability ([4]; first compound 0.1581 µM) of 0.348 and a relative viability ([4]; first compound 0.5 µM) of 0.389.
With COR-L 105 the relative viability ([1]; first compound 0.02 µM) was 0.753, the relative viability ([1]; first compound 0.06325 µM) was 0.723 and the relative viability ([1]; first compound 0.2 µM) was 0.631. The relative viability ([1]; first compound 2 µM) was 0.789, the relative viability ([2]; first compound 0.02 µM) was 0.71 and the relative viability ([2]; first compound 0.06325 µM) was 0.695. The relative viability ([2]; first compound 0.2 µM) was 0.757, the relative viability ([2]; first compound 2 µM) was 0.792 and the relative viability ([3]; first compound 0.02 µM) was 0.397. For the same cell line, the relative viability ([3]; first compound 0.06325 µM) was 0.397, the relative viability ([3]; first compound 0.2 µM) was 0.167 and the relative viability ([3]; first compound 2 µM) was 0.411. It also gave a relative viability ([4]; first compound 0.005 µM) of 0.35, a relative viability ([4]; first compound 0.01581 µM) of 0.337 and a relative viability ([4]; first compound 0.05 µM) of 0.339. It also gave a relative viability ([4]; first compound 0.1581 µM) of 0.373 and a relative viability ([4]; first compound 0.5 µM) of 0.303.
With NCI-H2342 the relative viability ([1]; first compound 0.02 µM) was 0.442, the relative viability ([1]; first compound 0.06325 µM) was 0.474 and the relative viability ([1]; first compound 0.2 µM) was 0.367. It also gave a relative viability ([1]; first compound 2 µM) of 0.525, a relative viability ([4]; first compound 0.005 µM) of 0.499 and a relative viability ([4]; first compound 0.01581 µM) of 0.493. For the same cell line, the relative viability ([4]; first compound 0.05 µM) was 0.577, the relative viability ([4]; first compound 0.1581 µM) was 0.53 and the relative viability ([4]; first compound 0.5 µM) was 0.396.
Work on NCI-H2170 yielded a relative viability ([1]; first compound 0.02 µM) of 0.557, a relative viability ([1]; first compound 0.06325 µM) of 0.632 and a relative viability ([1]; first compound 0.2 µM) of 0.562. The relative viability ([1]; first compound 2 µM) was 0.542, the relative viability ([3]; first compound 0.02 µM) was 0.28 and the relative viability ([3]; first compound 0.06325 µM) was 0.315. For the same cell line, the relative viability ([3]; first compound 0.2 µM) was 0.362, the relative viability ([3]; first compound 2 µM) was 0.27 and the relative viability ([4]; first compound 0.005 µM) was 0.676. For the same cell line, the relative viability ([4]; first compound 0.01581 µM) was 0.748, the relative viability ([4]; first compound 0.05 µM) was 0.519 and the relative viability ([4]; first compound 0.1581 µM) was 0.63. It also gave a relative viability ([4]; first compound 0.5 µM) of 0.23.
With LK-2 the relative viability ([1]; first compound 0.02 µM) was 0.774, the relative viability ([1]; first compound 0.06325 µM) was 0.704 and the relative viability ([1]; first compound 0.2 µM) was 0.673. It also gave a relative viability ([1]; first compound 2 µM) of 0.837, a relative viability ([3]; first compound 0.02 µM) of 0.612 and a relative viability ([3]; first compound 0.06325 µM) of 0.607. It also gave a relative viability ([3]; first compound 0.2 µM) of 0.642, a relative viability ([3]; first compound 2 µM) of 0.502 and a relative viability ([4]; first compound 0.01581 µM) of 0.165. For the same cell line, the relative viability ([4]; first compound 0.05 µM) was 0.185, the relative viability ([4]; first compound 0.1581 µM) was 0.168 and the relative viability ([4]; first compound 0.5 µM) was 0.157.
Cell Line NCI-H522 has a relative viability ([1]; first compound 0.02 µM) of 0.591, a relative viability ([1]; first compound 0.06325 µM) of 0.643 and a relative viability ([1]; first compound 0.2 µM) of 0.619. For the same cell line, the relative viability ([1]; first compound 2 µM) was 0.626, the relative viability ([4]; first compound 0.005 µM) was 0.503 and the relative viability ([4]; first compound 0.01581 µM) was 0.521. It also gave a relative viability ([4]; first compound 0.05 µM) of 0.476, a relative viability ([4]; first compound 0.1581 µM) of 0.55 and a relative viability ([4]; first compound 0.5 µM) of 0.46.
In the case of NCI-H1563, the relative viability ([2]; first compound 0.02 µM) is reported as 0.854, the relative viability ([2]; first compound 0.06325 µM) is reported as 0.833 and the relative viability ([2]; first compound 0.2 µM) is reported as 0.844. The relative viability ([2]; first compound 2 µM) was 0.916, the relative viability ([3]; first compound 0.02 µM) was 0.641 and the relative viability ([3]; first compound 0.06325 µM) was 0.695. The relative viability ([3]; first compound 0.2 µM) was 0.752 and the relative viability ([3]; first compound 2 µM) was 0.63.
In the case of NCI-H1623, the relative viability ([4]; first compound 0.005 µM) is reported as 0.44, the relative viability ([4]; first compound 0.01581 µM) is reported as 0.407 and the relative viability ([4]; first compound 0.05 µM) is reported as 0.301. The relative viability ([4]; first compound 0.1581 µM) was 0.451 and the relative viability ([4]; first compound 0.5 µM) was 0.201.
Cell Line IA-LM has a relative viability ([1]; first compound 0.02 µM) of 0.806, a relative viability ([1]; first compound 0.06325 µM) of 0.964 and a relative viability ([1]; first compound 0.2 µM) of 0.952. It also gave a relative viability ([1]; first compound 2 µM) of 0.833, a relative viability ([2]; first compound 0.02 µM) of 0.803 and a relative viability ([2]; first compound 0.06325 µM) of 0.756. For the same cell line, the relative viability ([2]; first compound 0.2 µM) was 0.783, the relative viability ([2]; first compound 2 µM) was 0.807 and the relative viability ([3]; first compound 0.02 µM) was 0.339. The relative viability ([3]; first compound 0.06325 µM) was 0.363, the relative viability ([3]; first compound 0.2 µM) was 0.355 and the relative viability ([3]; first compound 2 µM) was 0.456.
Work on EBC-1 yielded a relative viability ([1]; first compound 0.02 µM) of 0.551, a relative viability ([1]; first compound 0.06325 µM) of 0.713 and a relative viability ([1]; first compound 0.2 µM) of 0.713. It also gave a relative viability ([1]; first compound 2 µM) of 0.649, a relative viability ([2]; first compound 0.02 µM) of 0.513 and a relative viability ([2]; first compound 0.06325 µM) of 0.544. The relative viability ([2]; first compound 0.2 µM) was 0.633, the relative viability ([2]; first compound 2 µM) was 0.53 and the relative viability ([3]; first compound 0.02 µM) was 0.371. The relative viability ([3]; first compound 0.06325 µM) was 0.345, the relative viability ([3]; first compound 0.2 µM) was 0.379 and the relative viability ([3]; first compound 2 µM) was 0.335.
NCI-H358 showed a relative viability ([1]; first compound 0.02 µM) of 0.581, a relative viability ([1]; first compound 0.06325 µM) of 0.827 and a relative viability ([1]; first compound 0.2 µM) of 0.569. It also gave a relative viability ([1]; first compound 2 µM) of 0.37, a relative viability ([3]; first compound 0.02 µM) of 0.355 and a relative viability ([3]; first compound 0.06325 µM) of 0.396. The relative viability ([3]; first compound 0.2 µM) was 0.376, the relative viability ([3]; first compound 2 µM) was 0.367 and the relative viability ([4]; first compound 0.005 µM) was 0.103. The relative viability ([4]; first compound 0.05 µM) was 0.0879, the relative viability ([4]; first compound 0.1581 µM) was 0.12 and the relative viability ([4]; first compound 0.5 µM) was 0.0917.
In the case of NCI-H1395, the relative viability ([1]; first compound 0.02 µM) is reported as 0.493, the relative viability ([1]; first compound 0.06325 µM) is reported as 0.44 and the relative viability ([1]; first compound 0.2 µM) is reported as 0.485. It also gave a relative viability ([1]; first compound 2 µM) of 0.46, a relative viability ([3]; first compound 0.02 µM) of 0.603 and a relative viability ([3]; first compound 0.06325 µM) of 0.677. For the same cell line, the relative viability ([3]; first compound 0.2 µM) was 0.61, the relative viability ([3]; first compound 2 µM) was 0.602 and the relative viability ([4]; first compound 0.005 µM) was 0.77. It also gave a relative viability ([4]; first compound 0.01581 µM) of 0.688, a relative viability ([4]; first compound 0.05 µM) of 0.782 and a relative viability ([4]; first compound 0.1581 µM) of 0.74. For the same cell line, the relative viability ([4]; first compound 0.5 µM) was 0.776.
